Laboratory results from ChEMBL document CHEMBL1133286, “5-HETE congeners as modulators of cell proliferation” (2000).

test system: LNCaP; assay: Evaluated for its growth enhancement or mitogenic activity using LNCaP prostate cultures.; assay type: functional, cell-based; conditions: Homo sapiens, Prostate gland

| Compound | Control |
| --- | --- |
| CCCCCCCC/C=C\CCCCCCCC(=O)NCCO | No effect |

test system: LNCaP; assay: Evaluated for its growth enhancement or mitogenic activity using LNCaP prostate cultures; assay type: functional, Homo sapiens, Prostate gland; conditions: not given

| Compound | Control |
| --- | --- |
| CCCCC/C=C\C/C=C\C/C=C\C=C\C(O)CCCC(=O)N(C)C (stereo not given) | 138% |
| CCCCC/C=C\C/C=C\C/C=C\C=C\C(O)CCCC(=O)NN (stereo not given) | 60% |
| CCCCC/C=C\C/C=C\C/C=C\C=C\C(O)CCCC(N)=O (stereo not given) | 108% |
| CCCCC/C=C\C/C=C\C/C=C\C=C\C(O)CCCC(=O)NO (stereo not given) | 3% |
| CCCCC/C=C\C/C=C\C/C=C\C=C\C(CCCC(=O)O)NC (stereo not given) | 125% |
| CCCCC/C=C\C/C=C\C/C=C\C=C\C(O)CCCC(=O)NCCO (stereo not given) | 125% |
| CCCCC/C=C\C/C=C\C/C=C\C=C\C1CCCC(=O)N1C (stereo not given) | 131% |
| CCCCC/C=C\C/C=C\C/C=C\C/C=C\CCCC(=O)NCCO [ANANDAMIDE] | 112% |
| CCCCC/C=C\C/C=C\C/C=C\C=C\C(O)CCCC(=O)N1CCOCC1 (stereo not given) | 106% |
| CCCCC/C=C\C/C=C\C/C=C\C=C\C(O)CCCC(=O)c1cnccn1 (stereo not given) | 113% |
| CCCCC/C=C\C/C=C\C/C=C\C=C\C(O)CCCC(=O)O (stereo not given) | 116% |
| CCCCC/C=C\C/C=C\C/C=C\C=C\C(N)CCCC(=O)O (stereo not given) | 116% |
| CCCCC/C=C\C/C=C\C/C=C\C=C\C(O)CCCC(=O)N1CCCCC1 (stereo not given) | 123% |
| CCCCC/C=C\C/C=C\C/C=C\C=C\C(O)CCCC(=O)NOC (stereo not given) | 133% |
| CCCCC/C=C\C/C=C\C/C=C\C=C\C1CCCC(=O)N1 (stereo not given) | 121% |
| CCCCC/C=C\C/C=C\C/C=C\C=C\C(O)CCCC(=O)NC (stereo not given) | 108% |
| CCCCC/C=C\C/C=C\C/C=C\C=C\C(O)CCCC(=O)OC (stereo not given) | 111% |
| CCCCC/C=C\C/C=C\C/C=C\C=C\C(O)CCCC(=O)N(C)OC (stereo not given) | 115% |
| CCCCC/C=C\C/C=C\C/C=C\C=C\C(O)CCCC(=O)NCCCN (stereo not given) | 116% |
